Laboratory results as given in article PMC2642983 (AIDS (London, England), 2009).
Read-outs that look alike come from different tables or passages of the source. Marks after values point to notes of the source that are not given here.

What was measured:
[1] = Population pharmacokinetic modelling; format: in vivo, human; settings: for CSF penetration (% of plasma concentration): modeled estimate
[2] = system: HIV RNA in the CSF; experiment: Detectable HIV RNA in CSF by CSF atazanavir detectability; format: in vivo
[3] = system: wild-type HIV; settings: estimated with no protein (protein-free medium); cited from earlier work
[4] = system: plasma proteins; settings: no reference given; cited from earlier work
[5] = cited from earlier work
[6] = for CSF concentrations fold lower than plasma concentrations: even with ritonavir boosting
[7] = system: HIV RNA in the CSF; settings: over 3 weeks, all 13 participants receiving monotherapy; cited from earlier work
[8] = atazanavir with ritonavir, listed as atazanavir

Compound: COC(=O)N[C@H](C(=O)N[C@@H](Cc1ccccc1)[C@@H](O)CN(Cc1ccc(-c2ccccn2)cc1)NC(=O)[C@@H](NC(=O)OC)C(C)(C)C)C(C)(C)C [Atazanavir, atazanavir]
- Intersubject variability of ke ([1]; atazanavir with ritonavir): 17%
- Residual variability of CSF concentrations ([1]; atazanavir with ritonavir): 26%
- Residual variability of plasma concentrations ([1]; atazanavir with ritonavir): 49%
- oral clearance ([1]; atazanavir with ritonavir, corresponds to ke and Vd/F): 9.4 L/h
- Residual variability of CSF concentrations [1, 8]: 26%
- Residual variability of plasma concentrations [1, 8]: 49%
- CSF penetration (% of plasma concentration) ([1]; atazanavir with ritonavir): 0.0074 (0.74%)
- CSF penetration (% of plasma concentration) [1, 8]: 0.74%
- Vd/F ([1]; human, plasma, oral): 209 L
- half-life ([1]; human, plasma, oral): 15 h
- k el ([1]; human, plasma, oral): 1.25e-05 s⁻¹
- participants with measurable CSF HIV RNA ([2]; 12/60 participants with more than 5 ng/ml atazanavir in the CSF, P = 0.13): 20%
- participants with detectable (>50 copies/ml) HIV RNA in the CSF ([2]; seven of 19 participants with no measurable atazanavir in the CSF): 37%
- wild-type IC50 [3]: 1 ng/mL
- bound to plasma proteins [4]: 86%
- free (not bound to plasma proteins) [4]: 14%
- atazanavir CSF concentrations, average % of plasma concentrations ([5]; in vivo): 0.9%
- CSF atazanavir concentrations as % of plasma concentrations ([5]; seven HIV-infected patients): approximately 1%
- median (IQR) plasma concentration (11 samples with no detectable CSF atazanavir but measurable plasma atazanavir): 315 (280–432) ng/ml
- estimated free concentration of atazanavir in plasma (14% of 1510 ng/ml): approximately 210 ng/ml
- plasma samples with undetectable atazanavir (<0.13 μg/ml, 17 of 149 samples): 11%
- Median (interquartile range) plasma atazanavir concentration (atazanavir alone, without ritonavir): 523 (283–1344) ng/ml
- median (IQR) plasma concentration (corresponding to the 60 CSF samples with detectable atazanavir): 1743 (925–2919) ng/ml
- Median (interquartile range) plasma atazanavir concentration (with concomitant ritonavir): 1278 (525–2265) ng/ml
- Median (range) plasma concentration (with ritonavir 100 mg daily, 130 plasma samples): 1278 (<128–5295) ^* ng/ml
- Median (range) plasma concentration (without ritonavir, 18 plasma samples, 300 or 400 mg atazanavir daily): 523 (<128–6200) ng/ml
- CSF specimens with concentrations near the protein-free IC50 (<5 ng/ml) ([6]; 11/67, after excluding probable nonadherence): 16%
- CSF samples with undetectable atazanavir ([6]; <5 ng/ml, 19 of 79 samples): 24%
- observed CSF concentrations ([6]; as summarised in the discussion): 10 ng/mL
- CSF concentrations fold lower than plasma concentrations [6]: about 100 fold
- CSF concentrations fold lower than plasma concentrations ([6]; listed as atazanavir): 100 fold
- Kp ([6]; human, CSF, oral): < 0.01
- Median (interquartile range) CSF concentration ([6]; with ritonavir): 10.3 (<5–21.1) ng/ml
- Median (range) CSF concentration ([6]; with ritonavir, 68 CSF samples): 10.3 (<5–38) ^† ng/ml
- Median (interquartile range) CSF concentration ([6]; without ritonavir): 7.9 (6.6–22) ng/ml
- Median (range) CSF concentration ([6]; without ritonavir, 11 CSF samples): 7.9 (<5–40) ng/ml

Compound: lopinavir/ritonavir
- change in CSF HIV RNA levels [7]: substantial declines in CSF HIV RNA levels
